Series [1] has as its system Leishmania donovani. Description: Antileishmanial activity against Leishmania donovani MHOM/IN/80/Dd8 promastigotes harboring luciferase reporter gene after 72 hrs by luminescence assay. It is filed as functional, organism-based. The following applies: MHOM/IN/80/Dd8, 72 h. A general note: Reporter assays use an easily measured gene product as a stand-in for the process of interest.

Series [2] concerns Leishmania donovani. As to the kind of experiment: Antileishmanial activity against Leishmania donovani MHOM/IN/80/Dd8 amastigotes harboring luciferase reporter gene infected in mouse J774A.1 cells after 72 hrs by luminescence assay. The class given is functional, organism-based. The following applies: for pIC50: Leishmania donovani, MHOM/IN/80/Dd8, J774.A1, 72 h, read-out: IC50.

Series [3] is described as follows: Cytotoxicity against mouse J774A.1 cells after 48 hrs by MTT assay. It is filed as cell-based, J774.A1. In general terms: Tetrazolium dyes change colour on reduction, which living cells bring about.
Series [4] can be described thus: Selectivity index, ratio of CC50 for cytotoxicity against mouse J774A.1 cells to IC50 for Leishmania donovani MHOM/IN/80/Dd8 amastigotes harboring luciferase reporter gene infected in mouse J774A.1 cells. The class given is toxicity, cell-based. As to conditions: read-out: Ratio CC50/IC50.
For series [5], the system named is Leishmania donovani. As to the kind of experiment: Antileishmanial activity against Leishmania donovani MHOM/IN/80/Dd8 amastigotes infected in golden hamsters assessed as inhibition of parasite at 50 mg/kg, ip for 5 consecutive days measured on day 7 post last dose by Giemsa staining based assay relative to control. As to conditions: for inhibition in vivo at 50 mg/kg: MHOM/IN/80/Dd8, ip, 168 h. The class given is functional.

The subject of series [6] is Leishmania donovani. Description: Antileishmanial activity against Leishmania donovani MHOM/IN/80/Dd8 amastigotes infected in golden hamsters assessed as inhibition of parasite at 50 mg/kg, ip for 5 consecutive days measured on day 28 post last dose by Giemsa staining based assay relative to control. The class given is functional. As to conditions: MHOM/IN/80/Dd8, ip, 672 h.

Series [7] has as its system Leishmania donovani. Description: Antileishmanial activity against Leishmania donovani MHOM/IN/80/Dd8 amastigotes infected in golden hamsters assessed as inhibition of parasite at 20 mg/kg, ip for 5 consecutive days measured on day 7 post last dose by Giemsa staining based assay relative to control. The class given is functional, organism-based.
Series [8] has as its system Leishmania donovani. As to the kind of experiment: Antileishmanial activity against Leishmania donovani MHOM/IN/80/Dd8 amastigotes infected in golden hamsters assessed as inhibition of parasite at 20 mg/kg, ip for 5 consecutive days measured on day 28 post last dose by Giemsa staining based assay relative to control. The class given is functional, organism-based.

pIC50: −log10 of the molar value. Active and inactive are the calls of the source. The rule behind the calls is not given here.

In the case of `COc1cccc(Cn2cc(COC(=O)c3c(C)nc4ccccc4c3-c3ccccc3)nn2)c1`, the pIC50 (usually the IC50 on a negative log10 scale, so that one unit is a factor of ten) is 4.80 in the series with Leishmania donovani [1] and 4.47 with Leishmania donovani [2]. In addition, the half-maximal cytotoxic concentration (CC50) – broadly, the concentration giving 50% cytotoxicity – at 48 h in series [3] was determined as 36 µM. Also, in series [4], the selectivity ratio stood at 1.
As to `Cc1nc2ccc(Cl)cc2c(-c2ccccc2)c1C(=O)OCc1cn(Cc2ccccc2)nn1`, the pIC50 with Leishmania donovani [1] was 4.60; with Leishmania donovani [2], 5.15. The same compound returned a CC50 at 48 h in series [3] of 35 µM. The selectivity ratio in series [4] was 4.5. Moreover, the inhibition in vivo (usually the relative decrease from the control value, in per cent) at 50 mg/kg was found to be 37.8% in the series on Leishmania donovani [5] and 46.9% in the series with Leishmania donovani [6].
Consider `Cc1ccc(-n2cc(COC(=O)c3c(C)nc4ccccc4c3-c3ccccc3)nn2)cc1`, for which the figures for the pIC50 in the series on Leishmania donovani [1] and with Leishmania donovani [2] were 4.80 and 5.15, respectively. This compound also came in with a CC50 at 48 h in series [3] of 39 µM. In series [4], the selectivity ratio came to 5.58. Moreover, the inhibition (in general, the share of the control response that was lost under treatment) in the series on Leishmania donovani [5] is “inactive”. Further, the inhibition in vivo at 50 mg/kg in the series with Leishmania donovani [6] stood at 40.4%.
In the series with Leishmania donovani [1], `CCc1ccc(-n2cc(COC(=O)c3c(C)nc4ccccc4c3-c3ccccc3)nn2)cc1` gave a pIC50 of 5.10. The IC50 result with Leishmania donovani [2] is “Not Active”.
For `Cc1ccc(Cn2cc(COC(=O)c3c(C)nc4ccc(Cl)cc4c3-c3ccccc3)nn2)cc1`, in that order: 4.47 and “Not Active”.
Take `Cc1nc2ccc(Cl)cc2c(-c2ccccc2)c1C(=O)OCc1cn(Cc2ccc([N+](=O)[O-])cc2)nn1`: the pIC50 in the series with Leishmania donovani [1] was 5.30; in the series on Leishmania donovani [2] it was 4.80. Further, the half-maximal cytotoxic concentration (CC50) at 48 h in series [3] turned out to be 75 µM. Besides, in series [4], the selectivity ratio worked out at 4.6. The inhibition in vivo at 50 mg/kg in the series with Leishmania donovani [5] came out at 6.63%; in the series with Leishmania donovani [6], 22.7%.
On to `Cc1nc2ccc(Cl)cc2c(-c2ccccc2)c1C(=O)OCc1cn(-c2ccc(C(C)C)cc2)nn1`, for which the pIC50 in the series with Leishmania donovani [1] was 5.52. Further, the IC50 result in the series with Leishmania donovani [2] is recorded as “Not Active”.
For `Cc1nc2ccccc2c(-c2ccccc2)c1C(=O)OCc1cn(Cc2ccccc2F)nn1`, in that order: 5.40 and “Not Active”.
For `Cc1nc2ccccc2c(-c2ccccc2)c1C(=O)OCc1cn(Cc2ccccc2)nn1`, in that order: 5.00 and “Not Active”.
As for Sodium Stibogluconate, the inhibition in the series with Leishmania donovani [7] was 81.3%; in the series with Leishmania donovani [8], 85.3%.
Turning to `Cc1nc2ccc(Cl)cc2c(-c2ccccc2)c1C(=O)OCc1cn(-c2ccc(C(C)(C)C)cc2)nn1`, the pIC50 in the series on Leishmania donovani [1] is 4.35. Further, the IC50 result with Leishmania donovani [2] was “Not Active”.
For `Cc1ccc(-n2cc(COC(=O)c3c(C)nc4ccc(Cl)cc4c3-c3ccccc3)nn2)cc1F`, the figures for the pIC50 in the series on Leishmania donovani [1] and in the series on Leishmania donovani [2] were 5.40 and 4.92, respectively. In series [3], it took 34 µM to reach half-maximal cytotoxicity (CC50 at 48 h). In addition, the selectivity ratio in series [4] amounted to 2.9.
Consider `CCc1ccc(-n2cc(COC(=O)c3c(C)nc4ccc(Cl)cc4c3-c3ccccc3)nn2)cc1`, for which the figures for the pIC50 in the series on Leishmania donovani [1] and with Leishmania donovani [2] were 5.30 and 4.85, respectively. In addition, the midpoint of cytotoxicity in series [3], the CC50 at 48 h, lay at 99 µM. In series [4], the selectivity ratio was determined as 7. Moreover, the values for the inhibition in vivo at 50 mg/kg with Leishmania donovani [5] and in the series with Leishmania donovani [6] were 9.76% and 17.3%, respectively.
For the compound `Cc1nc2ccccc2c(-c2ccccc2)c1C(=O)OCc1cn(Cc2ccc([N+](=O)[O-])cc2)nn1`, the pIC50 in the series with Leishmania donovani [1] was 5.05; in the series on Leishmania donovani [2], 4.74. This compound also yielded a CC50 at 48 h in series [3] of 42 µM. Also, the selectivity ratio in series [4] worked out at 2.3.
On to `Cc1ccc(-n2cc(COC(=O)c3c(C)nc4ccccc4c3-c3ccccc3)nn2)cc1F`, for which the pIC50 was 5.22 with Leishmania donovani [1] and 4.77 with Leishmania donovani [2]. This compound yielded a CC50 at 48 h in series [3] of 36 µM. Moreover, the selectivity ratio in series [4] was determined as 2.12.
On to `Cc1ccc(-n2cc(COC(=O)c3c(C)nc4ccc(Cl)cc4c3-c3ccccc3)nn2)cc1`, for which the pIC50 in the series with Leishmania donovani [1] was 5.00. Moreover, the IC50 result with Leishmania donovani [2] is listed as “Not Active”.
Consider `Cc1nc2ccccc2c(-c2ccccc2)c1C(=O)OCc1cn(-c2ccc(F)cc2)nn1`, for which the pIC50 in the series with Leishmania donovani [1] was 4.66. For the same compound, the IC50 entry with Leishmania donovani [2] was “Not Active”.
The matching figures for `Cc1nc2ccccc2c(-c2ccccc2)c1C(=O)OCc1cn(-c2ccc(C(C)C)cc2)nn1`: 5.30 and “Not Active”.
Take `Cc1ccc(Cn2cc(COC(=O)c3c(C)nc4ccccc4c3-c3ccccc3)nn2)cc1`: the figures for the pIC50 with Leishmania donovani [1] and in the series on Leishmania donovani [2] were 5.40 and 4.66, respectively. Besides, the CC50 at 48 h in series [3] is 41 µM. Besides, the selectivity ratio in series [4] was 1.81.
`Cc1nc2ccccc2c(-c2ccccc2)c1C(=O)OCc1cn(-c2ccc(C(C)(C)C)cc2)nn1`: in the series with Leishmania donovani [1], the pIC50 is 5.15. Also, the IC50 result in the series with Leishmania donovani [2] is reported as “Not Active”.
Consider `CCCCCCCCCCCCCCCCOP(=O)([O-])OCC[N+](C)(C)C` [MILTEFOSINE], for which the pIC50 in the series with Leishmania donovani [1] is 6.00; with Leishmania donovani [2], 5.10. In series [3], this compound had a CC50 at 48 h of 56 µM. Besides, the selectivity ratio in series [4] was found to be 6.72.
In the series on Leishmania donovani [1], `Cc1nc2ccccc2c(-c2ccccc2)c1C(=O)OCc1cn(Cc2ccccc2C#N)nn1` had a negative logarithm of the IC50 (pIC50) of 5.00. Also, the IC50 entry in the series with Leishmania donovani [2] is on record as “Not Active”.
The matching figures for `Cc1nc2ccc(Cl)cc2c(-c2ccccc2)c1C(=O)OCc1cn(Cc2ccc(F)cc2)nn1`: 5.70 and “Not Active”.
Turning to `Cc1nc2ccc(Cl)cc2c(-c2ccccc2)c1C(=O)OCc1cn(-c2ccc(F)cc2)nn1`, the negative-log IC50 (pIC50) in the series on Leishmania donovani [1] was 4.77. In addition, the IC50 entry in the series with Leishmania donovani [2] is listed as “Not Active”.
The matching figures for `COc1cccc(Cn2cc(COC(=O)c3c(C)nc4ccc(Cl)cc4c3-c3ccccc3)nn2)c1`: 5.15 and “Not Active”.
`Cc1nc2ccc(Cl)cc2c(-c2ccccc2)c1C(=O)OCc1cn(Cc2ccccc2F)nn1` gave a pIC50 in the series with Leishmania donovani [1] of 4.62. In the series on Leishmania donovani [2], the IC50 entry was “Not Active”.
For `Cc1nc2ccccc2c(-c2ccccc2)c1C(=O)OCc1cn(Cc2ccc(F)cc2)nn1`, in that order: 5.22 and “Not Active”.

The values above are taken from ChEMBL document CHEMBL4152272, “Synthesis and evaluation of novel triazolyl quinoline derivatives as potential antileishmanial agents” (Eur J Med Chem, 2018).
